Results reported in paper PMC5879447, “Discovery of Novel Bovine Viral Diarrhea Inhibitors Using Structure-Based Virtual Screening on the Envelope Protein E2” (Frontiers in Chemistry, 2018).
Where two headings read alike, the source gives them in different places.

Assays:
MDBK cells [1] = experiment: Cytotoxicity assay (cell viability, crystal violet staining); type: cell-based, Bos taurus
Protocol: (§1) MDBK cells (Bos taurus kidney, ATCC CCL-22) were purchased from ATCC and grown in Dulbecso's modified Eagle medium (DMEM) supplemented with 10% fetal bovine serum and antibiotics under 5% CO2 at 37°C. For infections, cells were cultivated in DMEM supplemented with 2% Horse serum and antibiotics under 5% CO2 at 37°C.
(§2) Cell viability assays were performed on confluent cell cultures in 96 well plates (~15,000 cells per well). For each compound, cells were treated with serial dilutions of the compound in quadruplicates and incubated at 37°C for 3 days. Then, cell viability was measured using crystal violet staining. Briefly, cells were fixed with 10% formaldehyde, stained with crystal violet solution (20% Ethanol, 0.1% Crystal Violet), and after washing, the absorbance at 595 nm was recorded for each well in a spectrophotometer. Assays were conducted at least in duplicates, and the cytotoxic concentration 50 (CC50) was estimated by a nonlinear regression fitting of five data points as the compound concentration necessary to reduce cell viability by 50% compared to control non-treated cells.

BVDV [2] = test system: BVDV; set-up: method as in Pascual et al. (2018); conditions: MDBK cells infected with cpBVDV/Npro GFP; ref Pascual et al. (2018); cited from earlier work
BVDV cell entry = test system: BVDV cell entry; set-up: method as in Pascual et al., 2018; conditions: previously shown; ref Pascual et al., 2018; cited from earlier work
MDBK cells [3] = test system: MDBK cells; set-up: method as in Pascual et al. (2018); conditions: ref Pascual et al. (2018), cited from earlier work
[4] = Cytotoxicity assay (cell viability, crystal violet staining); type: cell-based, Bos taurus; conditions: cattle (Bos taurus), MDBK cells, 3 days at 37°C, mean and SD of at least two independent experiments
Protocol: as §1, §2

BVDV [5] = experiment: Reporter-based assay for antiviral activity (cpBVDV/Npro GFP, flow cytometry); type: cell-based, Bovine viral diarrhea virus; conditions: read-out: IC50 BVDV
Protocol: Antiviral activity was evaluated in a reporter-based assay using a recombinant virus expressing GFP, cpBVDV/Npro GFP (Pascual et al., [2018]). MDBK cells were seeded onto 24 well plates, infected with cpBVDV/Npro GFP at a multiplicity of infection of 0.1 in the presence of increasing concentrations of compounds. At 48 h post-infection cells were thoroughly washed, lifted with trypsin 0.05% and fixed using 4% paraformaldehyde in PBS. The fluorescence signal was measured using a flow cytometer (CyFlow® Space, Partec) at a detection spectrum of 488 nm. Data were analyzed in the FlowJo 7.6.2 software package. The inhibitory concentrations 50 (IC50s) for the compounds tested in the assay were calculated from curves constructed by plotting the percentage of infected cells versus the concentration of compound as the compound concentration necessary to reduce the number of infected cells by 50% compared to control non-treated cells.
First, we assayed selected compounds for cytotoxicity in cultured cells. […] The remainder of the compounds were evaluated for antiviral activity in a reporter-based assay using a recombinant BVDV virus carrying GFP on its genome to infect MDBK cells (Pascual et al., [2018]). Expression of GFP induced by BVDV infection was measured 2 days after infection using flow cytometry. Inhibition of BVDV infection was assessed by comparing the number of GFP positive cells in non-treated control cells and in cells treated with increasing amounts of compound.

[6] = MDBK cells (bovine kidney, ATCC CCL-22)
[7] = Bovine viral diarrhea virus isolates and strains, MDBK, 48 h

## 4-chloro-N-(isoxazol-5-yl)benzamide [Compound 15]
MDBK cells [1]
  CC50: > 50 µM

## OCCCc1nc2ccccc2[nH]1 [BI03]
BVDV [2]
  IC50: 17.6 ± 6.4 µM
BVDV cell entry
  block of BVDV cell entry: specifically block BVDV cell entry
MDBK cells [3]
  cytotoxicity at 50 μM: no cytotoxicity was detected
  CC50: > 200 µM

## c1ccc(CN2CCN(c3cccc4[nH]cnc34)CC2)cc1 [Compound 1]
[4]; [6]
  CC50 at 3 days: > 50 µM

## C1=C(c2nc3ccccc3o2)CCN1Cc1ncc[nH]1 [Compound 2]
[4]; [6]
  CC50 at 3 days: > 50 µM
BVDV [5]; [7]
  IC50: 44.3 ± 10.3 µM

## NNC(=O)c1ccccc1NC(=O)c1ccccc1 [Compound 3]
[4]
  CC50 at 3 days: > 50 µM

## C[C@@H](Sc1nnc(-c2cccnc2)n1N)C(=O)Nc1cccc(C(F)(F)F)c1 [Compound 4]
[4]; [6]
  CC50 at 3 days: > 50 µM
MDBK cells [1]; MDBK cells, 50 μM
  cytotoxicity at 50 μM: no cytotoxicity was detected
BVDV [5]; [7]
  IC50: 30.1 ± 2.9 µM

## Cc1cccc(Cl)c1NC(=N)NC(=N)N [Compound 5]
[4]; [6]
  CC50 at 3 days: > 50 µM

## O=C(NNC(=O)c1cc2cc(OC(F)(F)F)ccc2[nH]1)c1cccc(C(F)(F)F)c1 [Compound 6]
[4]; [6]
  CC50 at 3 days: 7.2 ± 1.3 µM
MDBK cells [1]; MDBK cells, compound discarded from further analysis
  cytotoxicity in cultured cells: high toxicity

## O=C(NCc1ccc2c(c1)OCO2)Oc1ccccc1 [Compound 7]
[4]
  CC50 at 3 days: > 50 µM

## CCOC(=O)c1ccc2nc(NC(=O)c3cccc(Cl)c3)sc2c1 [Compound 8]
[4]; [6]
  CC50 at 3 days: > 50 µM
MDBK cells [1]; MDBK cells, 50 μM
  cytotoxicity at 50 μM: no cytotoxicity was detected
BVDV [5]; [7]
  IC50: 20.2 ± 3.6 µM

## CS/C(=N\S(=O)(=O)c1ccc(-n2nc(C(F)(F)F)cc2-c2cccs2)cc1)N1CCCC1 [Compound 9]
[4]; [6]
  CC50 at 3 days: > 50 µM

## COc1ccccc1NC(=O)Cc1nnc(SCC(=O)Nc2cc(Cl)ccc2C)n1C [Compound 10]
[4]; [6]
  CC50 at 3 days: > 50 µM

## N=C(N)Nc1nc2ccccc2[nH]1 [Compound 12, 2-Guanidinobenzimidazole]
[4]; [6]
  CC50 at 3 days: > 50 µM
BVDV [5]; [7]
  IC50: 44.4 ± 11.5 µM

## O=C(OCCO)c1cccc2c1-c1ccccc1C2=O [Compound 13]
[4]; [6]
  CC50 at 3 days: 61.5 ± 1.4 µM

## Cc1cc(NC(=O)CCC(=O)O)no1 [Compound 14, 4-((5-methylisoxazol-3-yl)amino)-4-oxobutanoic acid]
[4]; [6]
  CC50 at 3 days: > 50 µM

## O=C(Nc1ccc(OC(F)(F)F)cc1)c1ccco1 [Compound 16, N-(4-(trifluoromethoxy)phenyl)furan-2-carboxamide]
[4]; [6]
  CC50 at 3 days: 49.8 ± 1.5 µM

## Cc1ccc(CNC(=N)NC(=N)N)cc1 [Compound 17]
[4]; [6]
  CC50 at 3 days: > 50 µM

## COc1ccc(C(=O)Nc2cc(-c3ccccc3)sc2C(N)=O)cc1OC [PTC12]
BVDV [2]
  IC50: 0.3 ± 0.1 µM
BVDV cell entry
  block of BVDV cell entry: specifically block BVDV cell entry
MDBK cells [3]
  cytotoxicity at 50 μM: no cytotoxicity was detected
  CC50: 89.5 ± 1.1 µM

## (E)-2-(4-(dimethylamino)benzylidene)-N-(4-(trifluoromethyl)phenyl)hydrazinecarbothioamide [Compound 11]
MDBK cells [1]
  CC50: > 50 µM
  cytotoxicity at 50 μM: no cytotoxicity was detected
BVDV [5]; MDBK cells infected with cpBVDV/Npro GFP, MOI 0.1, 48 h post-infection, mean and SD of at least two independent experiments, NA = assayed but not active
  IC50: 23.9 ± 7.9 µM
